According to the kinase profiling compilation of Christmann-Franck et al. (2016):

Legend:
Test in all cases: radiometric filter-binding kinase assay, Kinase HotSpot
Settings in all cases: compound 0.5 µM; ATP 10 µM
CSNK1G2 (human) = CSNK1G2 (human) (UniProt P78368)
KDR (human) = KDR (human) (UniProt P35968)
INSRR (human) = INSRR (human) (UniProt P14616)
BRAF (human) = BRAF (human) (UniProt P15056)
STK39 (human) = STK39 (human) (UniProt Q9UEW8)
MELK (human) = MELK (human) (UniProt Q14680)
MAPK3 (human) = MAPK3 (human) (UniProt P27361)
MAP3K5 (human) = MAP3K5 (human) (UniProt Q99683)
ROCK2 (human) = ROCK2 (human) (UniProt O75116)
TGFBR1 (human) = TGFBR1 (human) (UniProt P36897)
TNK2 (human) = TNK2 (human) (UniProt Q07912)
CDK2 CCNE1 (human) = CDK2 CCNE1 (human) (UniProt P24941+P24864)
TEK (human) = TEK (human) (UniProt Q02763)
MARK4 (human) = MARK4 (human) (UniProt Q96L34)
INSR (human) = INSR (human) (UniProt P06213)
HIPK2 (human) = HIPK2 (human) (UniProt Q9H2X6)
CLK4 (human) = CLK4 (human) (UniProt Q9HAZ1)
ACVR1 (human) = ACVR1 (human) (UniProt Q04771)
CHEK2 (human) = CHEK2 (human) (UniProt O96017)
FGFR4 (human) = FGFR4 (human) (UniProt P22455)
MYLK2 (human) = MYLK2 (human) (UniProt Q9H1R3)
RPS6KA6 KD1 KD2 (human) = RPS6KA6 KD1 KD2 (human) (UniProt Q9UK32)
FES (human) = FES (human) (UniProt P07332)
MKNK2 (human) = MKNK2 (human) (UniProt Q9HBH9)
EPHA3 (human) = EPHA3 (human) (UniProt P29320)
PKN1 (human) = PKN1 (human) (UniProt Q16512)
CDK2 CCNA2 (human) = CDK2 CCNA2 (human) (UniProt P24941+P20248)
ULK1 (human) = ULK1 (human) (UniProt O75385)
PDGFRB (human) = PDGFRB (human) (UniProt P09619)
HIPK1 (human) = HIPK1 (human) (UniProt Q86Z02)
CDC42BPA (human) = CDC42BPA (human) (UniProt Q5VT25)
HIPK3 (human) = HIPK3 (human) (UniProt Q9H422)
CAMK2G (human) = CAMK2G (human) (UniProt Q13555)
DAPK2 (human) = DAPK2 (human) (UniProt Q9UIK4)
NEK6 (human) = NEK6 (human) (UniProt Q9HC98)
PAK3 (human) = PAK3 (human) (UniProt O75914)
LRRK2 (human) = LRRK2 (human) (UniProt Q5S007)
AURKC (human) = AURKC (human) (UniProt Q9UQB9)

Chain of PKN1 (human) (Q16512 whole entry, looked up): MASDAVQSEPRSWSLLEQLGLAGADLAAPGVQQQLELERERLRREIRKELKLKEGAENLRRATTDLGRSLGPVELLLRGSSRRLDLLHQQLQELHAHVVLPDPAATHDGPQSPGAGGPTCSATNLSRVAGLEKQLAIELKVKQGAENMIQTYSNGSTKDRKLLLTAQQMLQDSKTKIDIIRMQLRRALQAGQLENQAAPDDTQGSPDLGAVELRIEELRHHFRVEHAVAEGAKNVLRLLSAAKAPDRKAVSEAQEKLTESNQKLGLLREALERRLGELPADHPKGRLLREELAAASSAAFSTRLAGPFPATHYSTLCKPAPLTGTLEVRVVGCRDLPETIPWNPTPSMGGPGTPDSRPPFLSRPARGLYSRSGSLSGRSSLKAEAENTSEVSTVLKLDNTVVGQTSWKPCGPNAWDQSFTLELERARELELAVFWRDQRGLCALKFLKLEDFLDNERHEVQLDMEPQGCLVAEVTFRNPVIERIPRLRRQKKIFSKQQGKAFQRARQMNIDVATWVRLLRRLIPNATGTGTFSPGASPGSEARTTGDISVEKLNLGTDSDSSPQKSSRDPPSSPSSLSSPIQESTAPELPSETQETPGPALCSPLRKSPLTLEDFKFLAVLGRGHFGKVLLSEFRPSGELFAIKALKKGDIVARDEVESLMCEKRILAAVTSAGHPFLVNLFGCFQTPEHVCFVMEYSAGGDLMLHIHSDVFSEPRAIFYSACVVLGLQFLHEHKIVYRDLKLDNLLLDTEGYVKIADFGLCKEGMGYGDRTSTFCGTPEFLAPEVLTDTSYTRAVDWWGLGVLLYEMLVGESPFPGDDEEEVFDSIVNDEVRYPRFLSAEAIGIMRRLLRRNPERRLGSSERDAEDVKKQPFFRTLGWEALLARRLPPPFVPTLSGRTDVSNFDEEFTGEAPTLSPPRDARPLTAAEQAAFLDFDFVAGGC
Chain of MARK4 (human) (Q96L34 whole entry, looked up): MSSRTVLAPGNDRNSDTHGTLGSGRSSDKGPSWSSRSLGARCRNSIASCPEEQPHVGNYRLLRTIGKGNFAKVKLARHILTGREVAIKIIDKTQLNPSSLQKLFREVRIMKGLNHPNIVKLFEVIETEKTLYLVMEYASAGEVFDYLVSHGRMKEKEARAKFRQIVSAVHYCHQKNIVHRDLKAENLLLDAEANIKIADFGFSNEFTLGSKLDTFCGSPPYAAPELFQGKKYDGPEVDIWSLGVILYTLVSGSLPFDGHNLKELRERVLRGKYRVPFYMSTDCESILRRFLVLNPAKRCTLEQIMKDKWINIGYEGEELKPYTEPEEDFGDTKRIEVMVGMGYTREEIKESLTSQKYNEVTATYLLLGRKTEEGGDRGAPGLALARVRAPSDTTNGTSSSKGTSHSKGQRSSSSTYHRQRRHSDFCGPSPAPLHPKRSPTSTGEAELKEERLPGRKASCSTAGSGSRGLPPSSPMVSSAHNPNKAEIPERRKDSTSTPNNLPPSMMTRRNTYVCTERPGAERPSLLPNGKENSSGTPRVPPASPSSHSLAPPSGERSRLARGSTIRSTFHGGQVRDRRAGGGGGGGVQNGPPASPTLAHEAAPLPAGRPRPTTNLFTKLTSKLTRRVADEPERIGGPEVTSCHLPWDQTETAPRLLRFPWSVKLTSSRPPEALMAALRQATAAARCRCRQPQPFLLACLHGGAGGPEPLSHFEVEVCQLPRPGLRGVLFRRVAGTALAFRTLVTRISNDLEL
Chain of MAP3K5 (human) (Q99683 whole entry, looked up): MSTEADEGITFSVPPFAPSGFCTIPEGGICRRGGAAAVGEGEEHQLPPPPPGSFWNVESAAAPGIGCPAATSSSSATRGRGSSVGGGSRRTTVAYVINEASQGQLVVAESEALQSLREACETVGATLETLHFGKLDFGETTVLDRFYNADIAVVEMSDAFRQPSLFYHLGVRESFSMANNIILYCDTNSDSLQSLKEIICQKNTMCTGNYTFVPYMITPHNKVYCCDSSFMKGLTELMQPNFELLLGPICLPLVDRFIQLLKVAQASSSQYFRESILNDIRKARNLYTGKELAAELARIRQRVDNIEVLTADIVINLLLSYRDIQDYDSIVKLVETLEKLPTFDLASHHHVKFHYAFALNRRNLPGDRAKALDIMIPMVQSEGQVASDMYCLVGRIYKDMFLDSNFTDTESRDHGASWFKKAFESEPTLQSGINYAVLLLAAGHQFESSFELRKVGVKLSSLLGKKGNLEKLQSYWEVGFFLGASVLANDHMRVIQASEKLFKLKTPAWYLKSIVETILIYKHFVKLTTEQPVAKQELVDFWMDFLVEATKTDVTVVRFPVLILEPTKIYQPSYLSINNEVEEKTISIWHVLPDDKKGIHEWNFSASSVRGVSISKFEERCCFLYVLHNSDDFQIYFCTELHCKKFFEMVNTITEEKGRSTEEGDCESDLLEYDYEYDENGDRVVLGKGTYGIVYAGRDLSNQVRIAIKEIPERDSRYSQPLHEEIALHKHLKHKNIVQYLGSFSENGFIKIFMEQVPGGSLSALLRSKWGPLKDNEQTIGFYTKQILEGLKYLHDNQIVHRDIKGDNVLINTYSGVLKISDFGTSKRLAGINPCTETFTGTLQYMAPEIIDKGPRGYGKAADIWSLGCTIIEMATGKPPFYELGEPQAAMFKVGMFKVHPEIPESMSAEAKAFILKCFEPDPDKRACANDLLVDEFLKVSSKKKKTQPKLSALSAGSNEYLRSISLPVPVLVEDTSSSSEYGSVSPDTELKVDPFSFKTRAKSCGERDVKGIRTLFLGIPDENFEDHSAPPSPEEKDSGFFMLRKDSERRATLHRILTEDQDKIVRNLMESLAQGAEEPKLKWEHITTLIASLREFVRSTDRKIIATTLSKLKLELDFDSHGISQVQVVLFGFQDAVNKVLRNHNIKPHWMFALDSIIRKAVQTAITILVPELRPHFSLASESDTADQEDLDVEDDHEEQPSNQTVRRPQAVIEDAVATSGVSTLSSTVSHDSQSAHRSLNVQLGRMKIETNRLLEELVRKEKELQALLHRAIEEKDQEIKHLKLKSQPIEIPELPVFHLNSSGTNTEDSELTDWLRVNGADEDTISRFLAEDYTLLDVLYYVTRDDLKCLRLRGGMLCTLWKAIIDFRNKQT
Chain of TNK2 (human) (Q07912 whole entry, looked up): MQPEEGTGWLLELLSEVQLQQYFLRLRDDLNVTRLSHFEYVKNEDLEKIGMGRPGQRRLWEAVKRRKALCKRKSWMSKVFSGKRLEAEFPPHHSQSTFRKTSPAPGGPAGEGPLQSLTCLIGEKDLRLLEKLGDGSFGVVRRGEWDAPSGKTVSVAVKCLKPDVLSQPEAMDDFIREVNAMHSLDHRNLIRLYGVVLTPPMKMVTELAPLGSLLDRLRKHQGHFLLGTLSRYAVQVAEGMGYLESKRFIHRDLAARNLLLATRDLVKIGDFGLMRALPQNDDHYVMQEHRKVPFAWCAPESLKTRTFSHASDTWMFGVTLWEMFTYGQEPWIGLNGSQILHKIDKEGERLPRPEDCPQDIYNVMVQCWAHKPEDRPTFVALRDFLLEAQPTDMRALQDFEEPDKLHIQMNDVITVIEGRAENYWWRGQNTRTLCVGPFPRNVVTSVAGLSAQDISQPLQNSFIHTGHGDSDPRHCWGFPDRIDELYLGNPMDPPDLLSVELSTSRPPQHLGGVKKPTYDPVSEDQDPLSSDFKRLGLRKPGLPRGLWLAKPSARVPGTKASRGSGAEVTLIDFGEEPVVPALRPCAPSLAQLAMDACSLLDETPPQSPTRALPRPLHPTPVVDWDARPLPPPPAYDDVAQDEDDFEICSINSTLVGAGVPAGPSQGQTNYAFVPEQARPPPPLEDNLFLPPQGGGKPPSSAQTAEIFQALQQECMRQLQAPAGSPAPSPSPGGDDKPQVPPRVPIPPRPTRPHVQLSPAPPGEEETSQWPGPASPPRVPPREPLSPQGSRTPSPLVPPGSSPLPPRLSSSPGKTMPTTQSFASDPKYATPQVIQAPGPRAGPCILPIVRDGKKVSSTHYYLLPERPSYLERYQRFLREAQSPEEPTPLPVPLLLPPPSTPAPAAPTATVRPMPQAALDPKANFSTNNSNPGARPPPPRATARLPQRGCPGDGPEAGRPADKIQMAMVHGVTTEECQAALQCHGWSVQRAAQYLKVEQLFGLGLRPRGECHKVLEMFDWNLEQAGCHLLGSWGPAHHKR
Chain of CHEK2 (human) (O96017 whole entry, looked up): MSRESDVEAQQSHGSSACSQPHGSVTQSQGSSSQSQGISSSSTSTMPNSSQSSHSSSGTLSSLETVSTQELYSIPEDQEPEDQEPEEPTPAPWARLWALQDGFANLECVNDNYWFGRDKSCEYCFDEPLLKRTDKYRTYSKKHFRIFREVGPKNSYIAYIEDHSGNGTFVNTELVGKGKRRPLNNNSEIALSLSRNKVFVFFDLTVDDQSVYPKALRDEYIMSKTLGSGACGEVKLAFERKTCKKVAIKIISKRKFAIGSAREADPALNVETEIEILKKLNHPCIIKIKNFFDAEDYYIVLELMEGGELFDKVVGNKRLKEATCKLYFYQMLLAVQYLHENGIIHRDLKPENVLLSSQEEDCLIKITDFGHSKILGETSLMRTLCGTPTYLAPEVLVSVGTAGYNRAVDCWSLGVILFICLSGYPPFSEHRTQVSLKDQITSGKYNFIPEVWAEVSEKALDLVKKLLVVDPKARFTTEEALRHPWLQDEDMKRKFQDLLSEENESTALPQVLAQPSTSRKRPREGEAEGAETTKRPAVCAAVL
Chain of NEK6 (human) (Q9HC98 whole entry, looked up): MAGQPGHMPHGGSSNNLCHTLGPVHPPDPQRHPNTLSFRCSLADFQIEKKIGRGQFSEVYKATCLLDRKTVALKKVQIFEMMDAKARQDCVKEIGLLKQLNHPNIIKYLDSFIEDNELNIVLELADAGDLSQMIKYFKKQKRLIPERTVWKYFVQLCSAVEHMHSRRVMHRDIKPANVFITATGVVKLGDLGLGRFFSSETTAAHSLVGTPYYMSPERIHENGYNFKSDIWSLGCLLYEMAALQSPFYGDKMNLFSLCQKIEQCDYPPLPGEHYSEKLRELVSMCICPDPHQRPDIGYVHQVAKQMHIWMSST

SMILES | residual activity (CSNK1G2 (human)) | residual activity (KDR (human)) | residual activity (INSRR (human)) | residual activity (BRAF (human)) | residual activity (STK39 (human)) | residual activity (MELK (human)) | residual activity (MAPK3 (human)) | residual activity (MAP3K5 (human)) | residual activity (TGFBR1 (human)) | residual activity (TNK2 (human)) | residual activity (TEK (human)) | residual activity (MARK4 (human)) | residual activity (INSR (human)) | residual activity (CLK4 (human)) | residual activity (ACVR1 (human)) | residual activity (CHEK2 (human)) | residual activity (FGFR4 (human)) | residual activity (MYLK2 (human)) | residual activity (RPS6KA6 KD1 KD2 (human)) | residual activity (MKNK2 (human)) | other results
CC#CC(=O)Nc1cc2c(Nc3ccc(F)c(Cl)c3)ncnc2cn1 | 94.9% | 98.2% | 101% | 82.1% | 91.3% | 101% | 100% | 98.9% | 98.7% | 95.1% | 99.7% | 101% | 99.6% | 90.4% | 105% | 98.8% | 102% | 99.9% | 95.3% | 66% | residual activity (ROCK2 (human)): 98.7%; residual activity (CDK2 CCNE1 (human)): 98.1%; residual activity (HIPK2 (human)): 101%; residual activity (FES (human)): 99.4%; residual activity (EPHA3 (human)): 99.8%; residual activity (PKN1 (human)): 101%; residual activity (CDK2 CCNA2 (human)): 97.8%; residual activity (ULK1 (human)): 96.6%; residual activity (PDGFRB (human)): 103%; residual activity (HIPK1 (human)): 108%; residual activity (CDC42BPA (human)): 93.1%; residual activity (HIPK3 (human)): 92.9%; residual activity (CAMK2G (human)): 97.7%; residual activity (DAPK2 (human)): 105%; residual activity (NEK6 (human)): 97.5%; residual activity (PAK3 (human)): 99%; residual activity (LRRK2 (human)): 92.3%; residual activity (AURKC (human)): 95.9%
Nc1cccc(-c2cc3c(Oc4cccc(O)c4)ncnc3[nH]2)c1 | 84.9% | 6.7% | 96.3% | 53.2% | 119% | 93.4% | 86.9% | 94.9% | 101% | 19.6% | 60.7% | 68.8% | 93.7% | 104% | 183% | 75.8% | 45.1% | 29.9% | 95.4% | 67.5% | residual activity (ROCK2 (human)): 94.5%; residual activity (CDK2 CCNE1 (human)): 90%; residual activity (HIPK2 (human)): 100%; residual activity (FES (human)): 73.8%; residual activity (EPHA3 (human)): 39.7%; residual activity (PKN1 (human)): 105%; residual activity (CDK2 CCNA2 (human)): 88.5%; residual activity (ULK1 (human)): 143%; residual activity (PDGFRB (human)): 39.9%; residual activity (HIPK1 (human)): 82.7%; residual activity (CDC42BPA (human)): 87.7%; residual activity (HIPK3 (human)): 94%; residual activity (CAMK2G (human)): 105%; residual activity (DAPK2 (human)): 106%; residual activity (NEK6 (human)): 90.2%; residual activity (PAK3 (human)): 79.8%; residual activity (LRRK2 (human)): 93.4%; residual activity (AURKC (human)): 77.7%
O=S(=O)(c1cccc2cnccc12)N1CCCNCC1 | 93.7% | 86.9% | 99.7% | 97.7% | 103% | 78.6% | 96.1% | 88.7% | 98.4% | 89.4% | 98.4% | 103% | 95% | 97.1% | 96.5% | 98.9% | 82.8% | 99.6% | 94% | 72% | residual activity (FES (human)): 121%; residual activity (EPHA3 (human)): 105%; residual activity (PKN1 (human)): 40.5%; residual activity (ULK1 (human)): 103%; residual activity (PDGFRB (human)): 102%; residual activity (HIPK1 (human)): 96.8%; residual activity (CDC42BPA (human)): 104%; residual activity (HIPK3 (human)): 107%; residual activity (CAMK2G (human)): 93.1%; residual activity (DAPK2 (human)): 83.6%; residual activity (NEK6 (human)): 97.6%; residual activity (PAK3 (human)): 103%; residual activity (LRRK2 (human)): 94.2%; residual activity (AURKC (human)): 97.4%
COc1ccc(COc2ccc(Cc3cnc(N)nc3N)cc2OC)cc1 | 101% | 109% | 99.4% | 99% | 87.6% | 102% | 99.1% | 89% | 97% | 105% | 101% | 89.7% | 97% | 86.5% | 100% | 107% | 99.7% | 104% | 101% | 90.6% | residual activity (ROCK2 (human)): 84.1%; residual activity (HIPK2 (human)): 103%; residual activity (EPHA3 (human)): 109%; residual activity (PKN1 (human)): 101%; residual activity (ULK1 (human)): 99.7%; residual activity (PDGFRB (human)): 98.2%; residual activity (HIPK1 (human)): 110%; residual activity (CDC42BPA (human)): 94.4%; residual activity (HIPK3 (human)): 102%; residual activity (CAMK2G (human)): 94.4%; residual activity (DAPK2 (human)): 95.3%; residual activity (NEK6 (human)): 99.4%; residual activity (PAK3 (human)): 102%; residual activity (LRRK2 (human)): 92.6%; residual activity (AURKC (human)): 97.5%
c1ccc(-c2n[nH]c3c2oc2ccccc23)cc1 | 86.4% | 107% | 104% | 96.9% | 120% | 77% | 87.3% | 97.4% | 94.9% | 85.8% | 96.8% | 98.2% | 94.4% | 98.9% | 99.4% | 101% | 85.5% | 66.6% | 107% | 70% | residual activity (ROCK2 (human)): 87.3%; residual activity (CDK2 CCNE1 (human)): 95.6%; residual activity (HIPK2 (human)): 99.6%; residual activity (FES (human)): 114%; residual activity (EPHA3 (human)): 104%; residual activity (PKN1 (human)): 94.1%; residual activity (CDK2 CCNA2 (human)): 88.1%; residual activity (ULK1 (human)): 124%; residual activity (HIPK1 (human)): 103%; residual activity (CDC42BPA (human)): 87.4%; residual activity (HIPK3 (human)): 80.7%; residual activity (CAMK2G (human)): 93.3%; residual activity (DAPK2 (human)): 71.2%; residual activity (NEK6 (human)): 99%; residual activity (PAK3 (human)): 89.2%; residual activity (LRRK2 (human)): 91.4%; residual activity (AURKC (human)): 96.7%
